The text below walks through data of patent publication US10143695B2 (priority 2016, dated 2018).

Type in all cases: cell-based
Assay [1] has as its system JIMT1 cells (HER2 medium expression level cells). Description: CellTiter-Glo cell viability assay, JIMT1. The settings on record: Homo sapiens, JIMT-1; PBD compounds, 72 h incubation. The protocol:
(§1) PBD compounds and conjugates thereof were evaluated for their antiproliferation properties in tumor cell lines in vitro using CellTiter-Glo® (Promega Corp). Cells were plated in black walled 96-well plate and allowed to adhere overnight at 37° C. in a humidified atmosphere of 5% CO2. BT474, SKBR3, NCI-N87 cells (HER2 expressing cells), JIMT1 cells (HER2 medium expression level cells) and MCF7 cells (HER2 low expressing levels cells) and were plated at a density of 5,000 cells per well. The next day the medium was replaced with 50 μL fresh medium and 50 μL of 2× stocks of PBD compounds or antibody-PBD conjugate were added to appropriate wells, mixed and incubated for 72 h. CellTiter-Glo® reagent was added to the wells at room temperature and the luminescent signal was measured after 10 min using a SpectraMax M5 plate reader (Molecular Devices). Dose response curves were generated using SoftMax Pro software. IC50 values were determined from four-parameter curve fitting.
In general terms: ATP-based viability assays read luminescence as a measure of living cells.

In assay [2] the test system is BT474 cells (HER2 expressing cells). Kind of assay: CellTiter-Glo cell viability assay, BT474. The settings on record: Homo sapiens, BT-474; PBD compounds, 72 h incubation. On the procedure: as §1
In assay [3] the test system is MCF7 cells (HER2 low expressing levels cells). Kind of assay: CellTiter-Glo cell viability assay, MCF7. The conditions noted are these: Homo sapiens, MCF7; PBD compounds, 72 h incubation. On the procedure: as §1
The subject of assay [4] is SKBR3 cells (HER2 expressing cells). Kind of assay: CellTiter-Glo cell viability assay, SKBR3. The settings on record: Homo sapiens, SK-BR-3; PBD compounds, 72 h incubation. The protocol: as §1
Assay [5] concerns NCI-N87 cells (HER2 expressing cells). Kind of assay: CellTiter-Glo cell viability assay, NCI-N87. The settings on record: Homo sapiens, NCI-N87; PBD compounds, 72 h incubation. On the procedure: as §1

By IC50 is commonly meant the concentration that inhibits the measured activity by half. A lower IC50 goes with greater potency. With `C=C1C[C@H]2C=Nc3cc(OCCCC(=O)Nc4cn(C)c(C(=O)Nc5cc(C(=O)Nc6cc(C(=O)n7ncc8ccc(N)cc87)n(C)c6)n(C)c5)n4)c(OC)cc3C(=O)N2C1` [Compound 28, (S,Z)-N-(5-(5-(6-amino-1H-indazole-1-carbonyl)-1-methyl-1H-pyrrol-3-ylcarbamoyl)-1-methyl-1H-pyrrol-3-yl)-4-(4-(7-methoxy-2-methylene-5-oxo-2,3,5,11a-tetrahydro-1H-benzo[e]pyrrolo[1,2-a][1,4]diazepin-8-yloxy)butanamido)-1-methyl-1H-imidazole-2-carboxamide], the concentration for half-maximal inhibition (IC50) in assay [1] stood at 0.6 nM; in assay [2] it was 2.9 nM; in assay [3], 2.6 nM; in assay [4], 0.16 nM; in assay [5], 1.02 nM.

Take `C=C1C[C@H]2C=Nc3cc(OCCCC(=O)Nc4cn(C)c(C(=O)Nc5cc(C(=O)Nc6cc(C(=O)NCc7ccc(N)cc7)n(C)c6)n(C)c5)n4)c(OC)cc3C(=O)N2C1` [Compound 4A, (S,Z)-N-(5-(5-(4-aminobenzylcarbamoyl)-1-methyl-1H-pyrrol-3-ylcarbamoyl)-1-methyl-1H-pyrrol-3-yl)-4-(4-(7-methoxy-2-methylene-5-oxo-2,3,5,11a-tetrahydro-1H-benzo[e]pyrrolo[1,2-a][1,4]diazepin-8-yloxy)butanamido)-1-methyl-1H-imidazole-2-carboxamide]: the IC50 in assay [1] stood at 11.4 nM; in assay [2], 26.8 nM; in assay [3], 1000 nM; in assay [4] it was 9.4 nM; in assay [5], 24.1 nM.

Regarding `C=C1C[C@H]2C=Nc3cc(OCCCC(=O)Nc4cn(C)c(C(=O)Nc5cc(C(=O)Nc6cc(C(=O)N7CCc8cc(N)ccc87)n(C)c6)n(C)c5)n4)c(OC)cc3C(=O)N2C1` [Compound 77, (S,Z)-N-(5-(5-(5-aminoindoline-1-carbonyl)-1-methyl-1H-pyrrol-3-ylcarbamoyl)-1-methyl-1H-pyrrol-3-yl)-4-(4-(7-methoxy-2-methylene-5-oxo-2,3,5,11a-tetrahydro-1H-benzo[e]pyrrolo[1,2-a][1,4]diazepin-8-yloxy)butanamido)-1-methyl-1H-imidazole-2-carboxamide], the IC50 in assay [1] was 8.6 nM; in assay [2], 37.1 nM; in assay [3], 14.9 nM; in assay [4], 1.4 nM; in assay [5], 6.4 nM.

Take `C=C1C[C@H]2C=Nc3cc(OCCCC(=O)Nc4cn(C)c(C(=O)Nc5cc(C(=O)Nc6cc(C(=O)N7Cc8ccc(N)cc8C7)n(C)c6)n(C)c5)n4)c(OC)cc3C(=O)N2C1` [Compound 6A, (S,Z)-N-(5-(5-(5-aminoisoindoline-2-carbonyl)-1-methyl-1H-pyrrol-3-ylcarbamoyl)-1-methyl-1H-pyrrol-3-yl)-4-(4-(7-methoxy-2-methylene-5-oxo-2,3,5,11a-tetrahydro-1H-benzo[e]pyrrolo[1,2-a][1,4]diazepin-8-yloxy)butanamido)-1-methyl-1H-imidazole-2-carboxamide]: the IC50 turned out to be 8.9 nM in assay [1]; 5.3 nM in assay [2]; 17.1 nM in assay [3]; 1.5 nM in assay [4]; 4.2 nM in assay [5].

With `C=C1C[C@H]2C=Nc3cc(OCCCC(=O)Nc4cn(C)c(C(=O)Nc5cc(C(=O)Nc6cc(C(=O)n7ccc8cc(C(=O)OC)cnc87)n(C)c6)n(C)c5)n4)c(OC)cc3C(=O)N2C1` [Compound 85, (S,Z)-methyl 1-(4-(4-(4-(4-(7-methoxy-2-methylene-5-oxo-2,3,5,11a-tetrahydro-1H-benzo[e]pyrrolo[1,2-a][1,4]diazepin-8-yloxy)butanamido)-1-methyl-1H-imidazole-2-carboxamido)-1-methyl-1H-pyrrole-2-carboxamido)-1-methyl-1H-pyrrole-2-carbonyl)-1H-pyrrolo[2,3-b]pyridine-5-carboxylate], the half-maximal inhibitory concentration (IC50) was found to be 14.2 nM in assay [1]; 6.3 nM in assay [2]; 8 nM in assay [3]; 0.58 nM in assay [4]; 0.97 nM in assay [5].

Consider `C=C1C[C@H]2C=Nc3cc(OCCCC(=O)Nc4cn(C)c(C(=O)Nc5cc(C(=O)Nc6cnc7[nH]ccc7c6)n(C)c5)n4)c(OC)cc3C(=O)N2C1` [Compound 84, (S,Z)-N-(5-(1H-pyrrolo[2,3-b]pyridin-5-ylcarbamoyl)-1-methyl-1H-pyrrol-3-yl)-4-(4-(7-methoxy-2-methylene-5-oxo-2,3,5,11a-tetrahydro-1H-benzo[e]pyrrolo[1,2-a][1,4]diazepin-8-yloxy)butanamido)-1-methyl-1H-imidazole-2-carboxamide], for which the IC50 in assay [1] came out at 3.6 nM; in assay [2], 5.4 nM; in assay [3], 3.8 nM; in assay [4], 0.66 nM; in assay [5], 1.5 nM.

Consider `C=C1C[C@@H]2C=Nc3cc(OCCCC(=O)Nc4cc(C(=O)Nc5cc(C(=O)Nc6cc(C(=O)NCCCO)n(C)c6)n(C)c5)n(C)c4)c(OC)cc3C(=O)N2C1` [Compound 55, (R,Z)-N-(3-hydroxypropyl)-4-(4-(4-(4-(7-methoxy-2-methylene-5-oxo-2,3,5,11a-tetrahydro-1H-benzo[e]pyrrolo[1,2-a][1,4]diazepin-8-yloxy)butanamido)-1-methyl-1H-pyrrole-2-carboxamido)-1-methyl-1H-pyrrole-2-carboxamido)-1-methyl-1H-pyrrole-2-carboxamide], for which the half-inhibitory concentration (IC50) is 2 nM in assay [1]; 7.5 nM in assay [2]; 47 nM in assay [3]; 2.5 nM in assay [4]; 5 nM in assay [5].

Consider `C=C1C[C@H]2C=Nc3cc(OCCCC(=O)Nc4cn(C)c(C(=O)Nc5cc(C(=O)Nc6cc(C(=O)n7ncc8cc(N)ccc87)n(C)c6)n(C)c5)n4)c(OC)cc3C(=O)N2C1` [Compound 79, (S,Z)-N-(5-(5-(5-amino-1H-indazole-1-carbonyl)-1-methyl-1H-pyrrol-3-ylcarbamoyl)-1-methyl-1H-pyrrol-3-yl)-4-(4-(7-methoxy-2-methylene-5-oxo-2,3,5,11a-tetrahydro-1H-benzo[e]pyrrolo[1,2-a][1,4]diazepin-8-yloxy)butanamido)-1-methyl-1H-imidazole-2-carboxamide], for which the IC50 is 2.1 nM in assay [1]; 0.66 nM in assay [2]; 2.6 nM in assay [3]; 0.09 nM in assay [4]; 0.31 nM in assay [5].

With `C=C1C[C@H]2C=Nc3cc(OCCCC(=O)Nc4cn(C)c(C(=O)Nc5cc(C(=O)Nc6cc(C(=O)O)n(C)c6)n(C)c5)n4)c(OC)cc3C(=O)N2C1` [Compound 51, (S,Z)-4-(4-(4-(4-(7-methoxy-2-methylene-5-oxo-2,3,5,11a-tetrahydro-1H-benzo[e]pyrrolo[1,2-a][1,4]diazepin-8-yloxy)butanamido)-1-methyl-1H-imidazole-2-carboxamido)-1-methyl-1H-pyrrole-2-carboxamido)-1-methyl-1H-pyrrole-2-carboxylic acid], the concentration for half-maximal inhibition (IC50) in assay [1] came to 300 nM; in assay [2] it was 300 nM; in assay [3], 300 nM; in assay [4], 260 nM; in assay [5], 300 nM.
